The subject of one assay is A-431. The assay is described as follows: Antiproliferative activity against human A-431 cells assessed as inhibition of cell proliferation measured after 72 hrs by MTT assay. The format is functional, cell-based. The conditions noted are these: A-431, 72 h. For orientation: Tetrazolium dyes change colour on reduction, which living cells bring about.
In a further assay the test system is MCF7. The experiment in a line: Antiproliferative activity against human MCF7 cells assessed as inhibition of cell proliferation measured after 72 hrs by MTT assay. Format: functional, cell-based. The conditions noted are these: MCF7, 72 h.
The test system of the next assay is HeLa. The experiment in a line: Antiproliferative activity against human HeLa cells assessed as inhibition of cell proliferation measured after 72 hrs by MTT assay. Format: functional, cell-based.
The subject of a further assay is L02. The assay is described as follows: Cytotoxicity against human L02 cells assessed as inhibition of cell proliferation measured after 72 hrs by MTT assay. The format is cell-based. The conditions noted are these: L02, 72 h.
The test system of a further assay is A549. The assay is described as follows: Antiproliferative activity against human A549 cells assessed as inhibition of cell proliferation measured after 72 hrs by MTT assay. Format: functional, cell-based. The conditions noted are these: A549, 72 h.
Assay [1] relates to NCI-H1975. The experiment in a line: Antiproliferative activity against human NCI-H1975 cells harboring EGFR T790M/L858R double mutant assessed as inhibition of cell viability at 10 uM measured after 72 hrs by MTT assay. The format is functional.
In assay [2] the test system is NCI-H1975. The assay is described as follows: Antiproliferative activity against human NCI-H1975 cells harboring EGFR T790M/L858R double mutant assessed as inhibition of cell viability at 1 uM measured after 72 hrs by MTT assay. The format is functional.
Assay [3] deals with NCI-H1975. The assay is described as follows: Antiproliferative activity against human NCI-H1975 cells harboring EGFR T790M/L858R double mutant assessed as inhibition of cell viability measured after 72 hrs by MTT assay. The format is functional, cell-based. The conditions noted are these: NCI-H1975, 72 h.
A short description of assay [4]: Inhibition of EGFR T790M mutant (unknown origin) using FAM-labelled peptide as substrate incubated for 10 mins in presence of ATP measured by mobility shift assay. Also noted: species or system Homo sapiens.
The target in assay [5] is T1, Epidermal growth factor receptor (Homo sapiens, UniProt P00533). The assay is described as follows: Inhibition of wild type EGFR (unknown origin) using FAM-labelled peptide as substrate at 1 uM incubated for 10 mins in presence of ATP measured by mobility shift assay.
The species named for another assay is Homo sapiens. The assay is described as follows: Inhibition of EGFR T790M mutant (unknown origin) using FAM-labelled peptide as substrate at 1 uM incubated for 10 mins in presence of ATP measured by mobility shift assay.
In assay [6] the target is T1, Epidermal growth factor receptor. The assay is described as follows: Inhibition of wild type EGFR (unknown origin) using FAM-labelled peptide as substrate incubated for 10 mins in presence of ATP measured by mobility shift assay.

Molecules are shown by their SMILES.

T1 sequence (P00533 whole entry): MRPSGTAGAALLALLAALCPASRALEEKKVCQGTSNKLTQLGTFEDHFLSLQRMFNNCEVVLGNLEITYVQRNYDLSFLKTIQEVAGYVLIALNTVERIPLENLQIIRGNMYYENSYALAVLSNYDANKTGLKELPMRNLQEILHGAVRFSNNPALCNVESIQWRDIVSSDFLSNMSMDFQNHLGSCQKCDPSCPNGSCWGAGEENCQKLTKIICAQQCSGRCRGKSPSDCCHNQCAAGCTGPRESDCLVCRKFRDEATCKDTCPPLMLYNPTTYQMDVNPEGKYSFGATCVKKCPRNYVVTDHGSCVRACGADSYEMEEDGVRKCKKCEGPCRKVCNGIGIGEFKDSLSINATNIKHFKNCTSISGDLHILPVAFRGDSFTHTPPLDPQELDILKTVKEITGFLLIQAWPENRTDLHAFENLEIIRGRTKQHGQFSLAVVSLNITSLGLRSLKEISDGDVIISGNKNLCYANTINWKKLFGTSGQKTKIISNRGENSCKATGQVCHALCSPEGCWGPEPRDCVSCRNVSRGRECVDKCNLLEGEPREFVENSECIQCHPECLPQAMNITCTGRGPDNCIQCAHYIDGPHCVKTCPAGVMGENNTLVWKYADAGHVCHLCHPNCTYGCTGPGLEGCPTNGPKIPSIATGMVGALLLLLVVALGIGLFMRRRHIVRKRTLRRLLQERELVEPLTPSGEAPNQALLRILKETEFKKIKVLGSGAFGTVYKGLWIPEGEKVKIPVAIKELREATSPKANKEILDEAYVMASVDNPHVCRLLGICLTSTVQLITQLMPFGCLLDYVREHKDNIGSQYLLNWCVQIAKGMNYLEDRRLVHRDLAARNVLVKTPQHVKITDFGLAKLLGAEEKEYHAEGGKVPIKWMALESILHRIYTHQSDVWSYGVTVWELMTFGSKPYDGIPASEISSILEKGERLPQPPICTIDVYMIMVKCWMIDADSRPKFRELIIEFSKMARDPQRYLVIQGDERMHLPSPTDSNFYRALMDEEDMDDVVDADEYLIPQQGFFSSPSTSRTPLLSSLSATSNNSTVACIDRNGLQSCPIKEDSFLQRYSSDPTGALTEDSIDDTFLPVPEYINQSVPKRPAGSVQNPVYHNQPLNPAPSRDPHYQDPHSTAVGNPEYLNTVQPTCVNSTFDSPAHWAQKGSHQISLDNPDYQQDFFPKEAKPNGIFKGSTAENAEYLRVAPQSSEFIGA

By IC50 is commonly meant the concentration at which inhibition is half-maximal. In the case of `COc1ccc(Nc2nc(Oc3cccc(NC(=O)C=C(C)C)c3)c3sccc3n2)cn1`, the IC50 with A-431 is greater than 50 µM; with MCF7 it was greater than 100 µM; in the assay with HeLa, greater than 100 µM; in the assay with L02, 36.9 µM; in the assay on A549, 40.1 µM.

Broadly, the inhibition is the change of the read-out against control, counted positive when it falls. On to `C=CC(=O)Nc1cccc(Oc2nc(Nc3ccc(OC)cc3)nc3ccsc23)c1`, for which the IC50 in the assay with A-431 was 9.3 µM; in the assay on MCF7, 16 µM; with HeLa, 26.1 µM; in the assay with L02, greater than 50 µM; in the assay with NCI-H1975 [3], 0.207 µM; in the assay with A549 it was 8.61 µM. For the same molecule, the inhibition at 10 µM in the assay on NCI-H1975 [1] is 83.8%. Besides, the inhibition at 1 µM in the assay with NCI-H1975 [2] was determined as 59.1%.

For the molecule `C=CC(=O)Nc1cc(Nc2nccc(-c3cn(C)c4ccccc34)n2)c(OC)cc1N(C)CCN(C)C` [OSIMERTINIB], the IC50 in the assay with A-431 was […]; in the assay with MCF7, 3.67 µM; with HeLa, 1.83 µM; in the assay on L02 it was greater than 50 µM; in the assay on A549, 0.67 µM.

For `CC/C=C/C(=O)Nc1cccc(Oc2nc(Nc3cccc(C#N)c3)nc3ccsc23)c1`, the IC50 is 36.2 µM with A-431; greater than 50 µM in the assay with MCF7; 69.4 µM in the assay with HeLa; greater than 50 µM in the assay on L02; 14.9 µM in the assay with A549.

With `CCC/C=C/C(=O)Nc1cccc(Oc2nc(Nc3cccc(C#N)c3)nc3ccsc23)c1`, the IC50 with A-431 was 20.4 µM; in the assay on MCF7 it was 49.1 µM; in the assay with HeLa, 42.1 µM; in the assay with L02, greater than 50 µM; in the assay on A549, 16.7 µM.

In the case of `CCC/C=C/C(=O)Nc1cccc(Oc2nc(Nc3ccn(C)n3)nc3ccsc23)c1`, the IC50 in the assay on A-431 amounted to 23.4 µM; in the assay on MCF7 it was 39.1 µM; in the assay on HeLa, 32.2 µM; in the assay on A549 it was 26.3 µM.

With `COc1ccc(Nc2nc(Oc3cccc(NC(=O)/C=C/C(C)C)c3)c3sccc3n2)cc1`, the IC50 in the assay on A-431 was 25.2 µM; with MCF7, greater than 50 µM; in the assay on HeLa, 45.1 µM; in the assay on A549, 37.9 µM.

Consider `COc1cccc(Nc2nc(Oc3cccc(NC(=O)/C=C/C(C)C)c3)c3sccc3n2)c1`, for which the IC50 is 23.4 µM in the assay with A-431, 43.9 µM with MCF7, 27 µM in the assay with HeLa and 37.1 µM in the assay on A549.

As to `C/C=C/C(=O)Nc1cccc(Oc2nc(Nc3cccc(C#N)c3)nc3ccsc23)c1`, the IC50 with A-431 came out at 20.1 µM; with MCF7, 33.1 µM; with HeLa, 23.6 µM; in the assay on L02, 47.9 µM; in the assay with A549, 11.3 µM.

Take `CC(C)=CC(=O)Nc1cccc(Oc2nc(Nc3cccc(C#N)c3)nc3ccsc23)c1`: the IC50 in the assay on A-431 is 28.3 µM; with MCF7, 41.1 µM; in the assay with HeLa it was 19.8 µM; in the assay with L02 it was greater than 50 µM; in the assay with A549, 16.9 µM.

With `C=C(F)C(=O)Nc1cccc(Oc2nc(Nc3ccn(C)n3)nc3ccsc23)c1`, the IC50 with A-431, in the assay with MCF7, in the assay on HeLa and in the assay with A549 was greater than 50 µM in each case.

For `CC/C=C/C(=O)Nc1cccc(Oc2nc(Nc3cccc(OC)c3)nc3ccsc23)c1`, the IC50 is 29.2 µM in the assay on A-431; 43.4 µM with MCF7; 29.4 µM with HeLa; greater than 50 µM with L02; 19.6 µM in the assay with A549.

On to `COc1ccc(Nc2nc(Oc3cccc(NC(=O)C=C(C)C)c3)c3sccc3n2)cc1`, for which the IC50 with A-431 is 17.6 µM; in the assay with MCF7, 46.1 µM; in the assay on HeLa, 28.8 µM; in the assay with L02 it was 48.9 µM; with A549, 18.1 µM.

Take `CC/C=C/C(=O)Nc1cccc(Oc2nc(Nc3ccn(C)n3)nc3ccsc23)c1`: the IC50 in the assay with A-431 is 36.2 µM; with MCF7, greater than 50 µM; with HeLa it was 49.4 µM; in the assay on A549 it was 25.6 µM.

As for `CC(C)=CC(=O)Nc1cccc(Oc2nc(Nc3ccn(C)n3)nc3ccsc23)c1`, the IC50 in the assay with A-431 was determined as 38.9 µM; with MCF7, 43.9 µM; with HeLa, 39.6 µM; in the assay on A549, 31.9 µM.

In the case of `CC/C=C/C(=O)Nc1cccc(Oc2nc(Nc3ccc(OC)cc3)nc3ccsc23)c1`, the IC50 was 15.1 µM in the assay on A-431; greater than 50 µM in the assay on MCF7; 36.1 µM in the assay on HeLa; greater than 50 µM with L02; 16.1 µM with A549.

For `CC/C=C/C(=O)Nc1cccc(Oc2nc(Nc3ccc(OC)nc3)nc3ccsc23)c1`, the IC50 in the assay with A-431 was 26.2 µM; in the assay on MCF7, greater than 50 µM; in the assay on HeLa, 49.9 µM; in the assay with L02, greater than 50 µM; in the assay on A549, 25.8 µM.

As for `C=CC(=O)Nc1cccc(Oc2nc(Nc3ccc(OC)nc3)nc3ccsc23)c1`, the IC50 in the assay on A-431 was 27.8 µM; with MCF7, greater than 50 µM; in the assay with HeLa, 47.1 µM; with L02, greater than 50 µM; with A549, 20.4 µM.

In the case of `C/C=C/C(=O)Nc1cccc(Oc2nc(Nc3cccc(OC)c3)nc3ccsc23)c1`, the half-inhibitory concentration (IC50) was 13.1 µM with A-431; 14.6 µM in the assay on MCF7; 20.1 µM with HeLa; 46 µM in the assay with L02; 10.5 µM with A549.

As for `C/C=C/C(=O)Nc1cccc(Oc2nc(Nc3ccc(OC)cc3)nc3ccsc23)c1`, the IC50 in the assay with A-431 is 11.8 µM; in the assay on MCF7 it was greater than 50 µM; in the assay on HeLa, 45.1 µM; in the assay with L02, greater than 50 µM; in the assay on A549, 13.7 µM.

For `C/C=C/C(=O)Nc1cccc(Oc2nc(Nc3ccc(OC)nc3)nc3ccsc23)c1`, the IC50 with A-431 is 37.2 µM; with MCF7, greater than 50 µM; in the assay with HeLa, greater than 50 µM; with L02, greater than 50 µM; in the assay on A549, 31.9 µM.

As for `C=CC(=O)Nc1cccc(Oc2nc(Nc3ccn(C)n3)nc3ccsc23)c1`, the IC50 with A-431 stood at 13.9 µM; with MCF7 it was 37.6 µM; in the assay with HeLa it was 17.3 µM; in the assay on A549 it was 26.5 µM.

Turning to `C=C(C)C(=O)Nc1cccc(Oc2nc(Nc3ccn(C)n3)nc3ccsc23)c1`, the IC50 in the assay on A-431, with MCF7, in the assay on HeLa and in the assay with A549 was greater than 50 µM each time.

Take `CC(C)/C=C/C(=O)Nc1cccc(Oc2nc(Nc3ccn(C)n3)nc3ccsc23)c1`: the IC50 with A-431 is 46.1 µM; in the assay with MCF7 it was greater than 50 µM; in the assay with HeLa, 48.8 µM; with A549, 29.9 µM.

Consider `CCC/C=C/C(=O)Nc1cccc(Oc2nc(Nc3ccc(OC)cc3)nc3ccsc23)c1`, for which the IC50 in the assay on A-431 is 4.22 µM; in the assay with MCF7 it was 35 µM; in assay [4], greater than 1 µM; in the assay on HeLa, 31.4 µM; with L02 it was greater than 50 µM; in the assay with NCI-H1975 [3], 2.14 µM. For the same molecule, the IC50 in the assay with A549 was 5.21 µM; in assay [6], greater than 1 µM. The inhibition in assay [5] came to 7.4%; in the assay listed under Homo sapiens, 21.7%. In the assay with NCI-H1975 [1], the inhibition at 10 µM is 94.3%. The inhibition at 1 µM with NCI-H1975 [2] is 3.25%.

For `CC(C)/C=C/C(=O)Nc1cccc(Oc2nc(Nc3cccc(C#N)c3)nc3ccsc23)c1`, the IC50 was 24.1 µM in the assay with A-431; greater than 50 µM with MCF7; 36.5 µM in the assay on HeLa; greater than 50 µM in the assay on L02; 19 µM in the assay on A549.

Take `C/C=C/C(=O)Nc1cccc(Oc2nc(Nc3ccn(C)n3)nc3ccsc23)c1`: the IC50 is 33.3 µM in the assay on A-431, greater than 50 µM in the assay with MCF7, 43.5 µM with HeLa and 29.5 µM in the assay with A549.

In the case of `COc1cccc(Nc2nc(Oc3cccc(NC(=O)C=C(C)C)c3)c3sccc3n2)c1`, the IC50 in the assay on A-431 was found to be 25.8 µM; with MCF7, 35.8 µM; in the assay with HeLa, 26.1 µM; in the assay with A549 it was 27.7 µM.

As to `COc1ccc(Nc2nc(Oc3cccc(NC(=O)/C=C/C(C)C)c3)c3sccc3n2)cn1`, the IC50 in the assay on A-431, in the assay with MCF7, in the assay on HeLa and with A549 was greater than 50 µM each time.

With `CCC/C=C/C(=O)Nc1cccc(Oc2nc(Nc3cccc(OC)c3)nc3ccsc23)c1`, the IC50 in the assay with A-431 was 8.09 µM; with MCF7, 5.02 µM; in assay [4], greater than 1 µM; in the assay on HeLa it was 7.73 µM; in the assay with L02, greater than 50 µM; in the assay with A549, 5.56 µM. In assay [6], the IC50 was greater than 1 µM. Besides, the inhibition in [5] is 4%; in the assay listed under Homo sapiens it was 24.5%. Also, the inhibition at 10 µM with NCI-H1975 [1] was 14.6%. For the same molecule, the inhibition at 1 µM with NCI-H1975 [2] is -0.18%.

`CCC/C=C/C(=O)Nc1cccc(Oc2nc(Nc3ccc(OC)nc3)nc3ccsc23)c1`: the IC50 is 30.3 µM with A-431; greater than 50 µM in the assay with MCF7; greater than 50 µM with HeLa; 41.6 µM in the assay on L02; 21.5 µM in the assay with A549.

These data come from ChEMBL document CHEMBL4706512, “Design, synthesis and antitumor activity of novel thiophene-pyrimidine derivatives as EGFR inhibitors overcoming T790M and L858R/T790M mutations” (Eur J Med Chem, 2020).
